Values of other authors as cited in patent US20190275032A1 (Boehringer Ingelheim International GmbH, priority 2016, published 2019).

Assays:
patients with IPF [1] = tested on: patients with IPF
patients with IPF [2] = settings: both INPULSIS trials, nintedanib 150 mg twice daily versus placebo
PDGFR-α and-β = settings: normal human lung fibroblasts in vitro

## Cc1ccc(=O)n(-c2ccccc2)c1 [Pirfenidone, 5-methyl-1-phenyl-2(1H)-Pyridinone]
Patients with IPF [1]; ASCEND Phase III trial
  primary endpoint of change from baseline FVC % predicted: met the primary endpoint
Patients with IPF [1]; international Phase III CAPACITY program
  primary FVC lung function endpoint: demonstrated efficacy on the primary FVC lung function endpoint in only one of two confirmatory trials
Patients with IPF [1]; two local trials in Japan
  decline of vital capacity: reduced decline

## COC(=O)c1ccc2c(c1)NC(=O)/C2=C(\Nc1ccc(N(C)C(=O)CN2CCN(C)CC2)cc1)c1ccccc1 [Nintedanib, 3-Z-[1-(4-(N-((4-methyl-piperazin-1-yl)-methylcarbonyl)-N-methyl-amino)-anilino)-1-phenyl-methylene]-6-methoxycarbonyl-2-indolinone]
Patients with IPF [2]
  reduction of the annual rate of decline in FVC (mL/year): approximately 50%
Child Pugh A, Child Pugh B
  exposure in patients with hepatic impairment: Exposure increased
In vivo
  elimination via biliary/faecal excretion: > 90%
PDGFR-α and-β
  PDGFR-α and -β activation: inhibit
Human lung fibroblasts; fibroblasts from patients with IPF
  PDGF- or FGF-2-stimulated migration of lung fibroblasts: attenuated
Human lung fibroblasts; primary human lung fibroblasts from IPF patients
  TGF-β-induced fibroblast to myofibroblast transformation: inhibited
Mouse models of IPF; IPF mouse models
  total lung collagen: significant reductions
Mouse models of IPF; two different mouse models of IPF
  lymphocyte and neutrophil counts in the bronchoalveolar lavage fluid: significant reductions
